# Source: patent US9765105B2, “Macrolide compound” (Pulike Biological Engineering, Inc., priority 2013, dated 2017)
# How the values were obtained:
# Test in all cases: in vitro susceptibility, MIC by mini broth dilution
# Format in all cases: cell-based
# [1] = tested on: Streptococcus equines CVCC556; conditions: strain CVCC556
# Procedure, shortened: (§1)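 Read-out is the minimum inhibitory concentration, measured by mini broth dilution following the US NCCLS approved standard, with 11 two-fold compound dilutions in DMSO and a 1:200-diluted inoculum.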
# [2] = tested on: Actinobacillus pleuropneumoniae CVCC262; conditions: strain CVCC262
# Procedure, shortened: as §1
# Haemophilus parasuis = tested on: Haemophilus parasuis
# Procedure, shortened: as §1
# [3] = tested on: Pasteurella multocida CVCC399; conditions: strain CVCC399
# Procedure, shortened: as §1
# [4] = tested on: Staphylococcus aureus CVCC26003; conditions: strain CVCC26003
# Procedure, shortened: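 S. aureus CVCC26003 was revived and subcultured twice, 20 h each at 35° C, on solid medium, then diluted 1:200 in CAMHB liquid medium. Compounds received an 11-step two-fold DMSO dilution in parallel duplicate rows. MIC was read by mini broth dilution per NCCLS guidance.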
Molecule,"MIC values, Streptococcus equines CVCC556 [1]","MIC values, Actinobacillus pleuropneumoniae CVCC262 [2]","MIC values, Haemophilus parasuis (Haemophilus parasuis)","MIC values, Pasteurella multocida CVCC399 [3]","MIC values, Staphylococcus aureus CVCC26003 [4]"
CCCCN(C)C[C@]1(O)[C@H](C)O[C@@H](O[C@H]2[C@H](C)[C@@H](O[C@@H]3O[C@H](C)C[C@H](N(C)C)[C@H]3O)[C@](C)(O)C[C@@H](C)N(CCC)C[C@H](C)[C@@H](O)[C@](C)(O)[C@@H](CC)OC(=O)[C@@H]2C)C[C@@]1(C)OC [syzx-198],0.5 ug/mi,0.5 ug/mi,0.5 ug/mi,4 ug/mi,1 ug/mi
CCCN1C[C@H](C)[C@@H](O)[C@](C)(O)[C@@H](CC)OC(=O)[C@H](C)[C@@H](O[C@H]2C[C@@](C)(OC)[C@](O)(CNCCc3c[nH]c4ccccc34)[C@H](C)O2)[C@H](C)[C@@H](O[C@@H]2O[C@H](C)C[C@H](N(C)C)[C@H]2O)[C@](C)(O)C[C@H]1C [syzx-174],0.25 ug/mi,4 ug/mi,2 ug/mi,8 ug/mi,4 ug/mi
"CCC1OC(=O)C(C)C(OC2CC(C)(OC)C(O)(CNc3ccccc3)C(C)O2)C(C)C(OC2OC(C)CC(N(C)C)C2O)C(C)(O)CC(C)NCC(C)C(O)C1(C)O [syzx-4, (2R,3S,4R,5S,8R,10R,11R,12S,13S,14R)-13-[(2,6-dideoxy-3-C-methyl-3-O-methyl-4-C-[(phenylamino)methyl]-α-L-ribopyranosyl)oxy]-2-ethyl-3,4,10-trihydroxy-3,5,8,10,12,14-hexamethyl-11-[[3,4,6-trideoxy-3-(dimethylamino)-β-D-xylo-hexopyranosy]oxy]-1-oxa-7-azacyclopentadecan-15-one]",≦0.25 ug/mi,32 ug/mi,0.5 ug/mi,1 ug/mi,1 ug/mi
CCCN1C[C@H](C)[C@@H](O)[C@](C)(O)[C@@H](CC)OC(=O)[C@H](C)[C@@H](O[C@H]2C[C@@](C)(OC)[C@](O)(CNCCCC(OC)OC)[C@H](C)O2)[C@H](C)[C@@H](O[C@@H]2O[C@H](C)C[C@H](N(C)C)[C@H]2O)[C@](C)(O)C[C@H]1C [syzx-205],0.5 ug/mi,4 ug/mi,4 ug/mi,4 ug/mi,4 ug/mi
"(2R,3S,4R,5S,8R,10R,11R,12S,13S,14R)-13-[(2,6-dideoxy-3-C-methyl-3-O-methyl-4-C-[(thienylformyloxymethyl-2-amino)-methyl]-α-L-ribopyranosyl)oxy]-2-ethyl-3,4,10-trihydroxy-3,5,8,10,12,14-hexamethyl-11-[[3,4,6-trideoxy-3-(dimethylamino)-β-D-xylo-hexopyranosy]oxy]-1-oxa-7-azacyclopentadecan-15-one [syzx-77]",0.5 ug/mi,16 ug/mi,0.25 ug/mi,0.5 ug/mi,0.25 ug/mi
CC[C@H]1OC(=O)[C@H](C)[C@@H](O[C@H]2C[C@@](C)(OC)[C@](O)(CNc3ccnc(Cl)c3)[C@H](C)O2)[C@H](C)[C@@H](O[C@@H]2O[C@H](C)C[C@H](N(C)C)[C@H]2O)[C@](C)(O)C[C@@H](C)NC[C@H](C)[C@@H](O)[C@]1(C)O [syzx-38],0.5 ug/mi,32 ug/mi,0.5 ug/mi,0.5 ug/mi,1 ug/mi
"CC[C@H]1OC(=O)[C@H](C)[C@@H](O[C@H]2C[C@@](C)(OC)[C@](O)(CNc3ccc(C)c(C)c3)[C@H](C)O2)[C@H](C)[C@@H](O[C@@H]2O[C@H](C)C[C@H](N(C)C)[C@H]2O)[C@](C)(O)C[C@@H](C)NC[C@H](C)[C@@H](O)[C@]1(C)O [syzx-84, (2R,3S,4R,5S,8R,10R,11R,12S,13S,14R)-13-[(2,6-dideoxy-3-C-methyl-3-O-methyl-4-C-[(3,4-dimethylphenyl-amino)-methyl]-α-L-ribopyranosyl)oxy]-2-ethyl-3,4,10-trihydroxy-3,5,8,10,12,14-hexamethyl-11-[[3,4,6-trideoxy-3-(dimethylamino)-β-D-xylo-hexopyranosy]oxy]-1-oxa-7-azacyclopentadecan-15-one]",≦0.25 ug/mi,2 ug/mi,≦0.25 ug/mi,0.25 ug/mi,≦0.25 ug/mi
CCCN1C[C@H](C)[C@@H](O)[C@](C)(O)[C@@H](CC)OC(=O)[C@H](C)[C@@H](O[C@H]2C[C@@](C)(OC)[C@](O)(CNc3ccc(I)cc3)[C@H](C)O2)[C@H](C)[C@@H](O[C@@H]2O[C@H](C)C[C@H](N(C)C)[C@H]2O)[C@](C)(O)C[C@H]1C [syzx-227],0.5 ug/mi,4 ug/mi,4 ug/mi,8 ug/mi,2 ug/mi
CCCN1C[C@H](C)[C@@H](O)[C@](C)(O)[C@@H](CC)OC(=O)[C@H](C)[C@@H](O[C@H]2C[C@@](C)(OC)[C@](O)(CNc3ccc(C)cc3C)[C@H](C)O2)[C@H](C)[C@@H](O[C@@H]2O[C@H](C)C[C@H](N(C)C)[C@H]2O)[C@](C)(O)C[C@H]1C [syzx-229],0.25 ug/mi,4 ug/mi,4 ug/mi,16 ug/mi,4 ug/mi
CCCN1C[C@H](C)[C@@H](O)[C@](C)(O)[C@@H](CC)OC(=O)[C@H](C)[C@@H](O[C@H]2C[C@@](C)(OC)[C@](O)(CNCCOCCO)[C@H](C)O2)[C@H](C)[C@@H](O[C@@H]2O[C@H](C)C[C@H](N(C)C)[C@H]2O)[C@](C)(O)C[C@H]1C [syzx-143],0.25 ug/mi,0.25 ug/mi,0.25 ug/mi,1 ug/mi,0.25 ug/mi
CCCN1C[C@H](C)[C@@H](O)[C@](C)(O)[C@@H](CC)OC(=O)[C@H](C)[C@@H](O[C@H]2C[C@@](C)(OC)[C@](O)(CNN3CCOCC3)[C@H](C)O2)[C@H](C)[C@@H](O[C@@H]2O[C@H](C)C[C@H](N(C)C)[C@H]2O)[C@](C)(O)C[C@H]1C [syzx-148],0.25 ug/mi,0.5 ug/mi,0.5 ug/mi,1 ug/mi,0.25 ug/mi
CCCN1CC(C)C(O)C(C)(O)C(CC)OC(=O)C(C)C(OC2CC(C)(OC)C(O)(Cn3ccnn3)C(C)O2)C(C)C(OC2OC(C)CC(N(C)C)C2O)C(C)(O)CC1C (stereo not shown) [syzx-109],0.25 ug/mi,0.25 ug/mi,0.25 ug/mi,1 ug/mi,0.25 ug/mi
"CC[C@H]1OC(=O)[C@H](C)[C@@H](O[C@H]2C[C@@](C)(OC)[C@](O)(CNCCCNCCc3ccc(S(C)(=O)=O)cc3)[C@H](C)O2)[C@H](C)[C@@H](O[C@@H]2O[C@H](C)C[C@H](N(C)C)[C@H]2O)[C@](C)(O)C[C@@H](C)NC[C@H](C)[C@@H](O)[C@]1(C)O [Syzx-61, (2R,3S,4R,5S,8R,10R,11R,12S,13S,14R)-13-[(2,6-dideoxy-3-C-methyl-3-O-methyl-4-C-[[(4-mesylphenylethylamino)propylamino]-methyl]-α-L-ribopyranosyl)oxy]-2-ethyl-3,4,10-trihydroxy-3,5,8,10,12,14-hexamethyl-11-[[3,4,6-trideoxy-3-(dimethylamino)-β-D-xylo-hexopyranosy]oxy]-1-oxa-7-azacyclopentadecan-15-one]",0.5 ug/mi,32 ug/mi,≦0.25 ug/mi,1 ug/mi,≦0.25 ug/mi
"CC[C@H]1OC(=O)[C@H](C)[C@@H](O[C@H]2C[C@@](C)(OC)[C@](O)(CNc3ccccc3F)[C@H](C)O2)[C@H](C)[C@@H](O[C@@H]2O[C@H](C)C[C@H](N(C)C)[C@H]2O)[C@](C)(O)C[C@@H](C)NC[C@H](C)[C@@H](O)[C@]1(C)O [syzx-95, (2R,3S,4R,5S,8R,10R,11R,12S,13S,14R)-13-[(2,6-dideoxy-3-C-methyl-3-O-methyl-4-C-[(2-fluoro-phenyl-amino)-methyl]-α-L-ribopyranosyl)oxy]-2-ethyl-3,4,10-trihydroxy-3,5,8,10,12,14-hexamethyl-11-[[3,4,6-trideoxy-3-(dimethylamino)-β-D-xylo-hexopyranosy]oxy]-1-oxa-7-azacyclopentadecan-15-one]",0.5 ug/mi,2 ug/mi,2 ug/mi,2 ug/mi,2 ug/mi
